Data as given in patent publication US7220832B2, “Dermacentor variabilis GABA-gated chloride channels” (priority 2000, dated 2007).

Tested on: D. variabilis GABA-gated chloride channel
Assay: Two-microelectrode voltage clamp recording of Xenopus laevis oocytes injected with Dv8, Dv9 or Dv5 mRNA
Assay type: cell-based, Dermacentor variabilis
Settings: for current in response to application of compound: 1 mM, oocytes expressing Dv8 and Dv9 (SEQ. ID. NOs. 1 and 2), holding potential 0 or -30 mV; for block of the GABA-activated current: current activated by 1 mM GABA
Method: Functional expression of a D. variabilis GABA-gated chloride channel was observed using MRNA encoding for the polypeptide of SEQ. ID. NOs. 1, 2, and 3 injected into Xenopus laevis oocytes. MRNA encoding for SEQ. ID. NOs. 1, 2, and 3 were obtained using the Dv8, Dv9, and Dv5 clones as described in Example 1.
Xenopus laevis oocytes were prepared and injected using standard methods previously described. (Arena et al., Mol. Pharmaco. 40:368-374, 1991; and Arena et al., Mol. Brain Res. 15:339-348, 1992.) Adult female Xenopus laevis were anesthetized with 0.17% tricaine methanesulfonate and the ovaries were surgically removed and placed in a solution consisting of (mM): NaCl 82.5, KCl 2, MgCl2 1, HEPES 5, NaPyruvate 2.5, Penicillin G. 100,000 units/L, Streptomycin Sulfate 1000 mg/L, pH 7.5 (Mod. OR-2).
Ovarian lobes were broken open, rinsed several times in Mod. OR-2, and incubated in 0.2% collagenase (Sigma, Type1) in Mod. OR-2 at room temperature with gentle shaking. After 1 hour the collagenase solution was renewed and the oocytes were incubated for an additional 30-90 minutes until approximately 50% of the oocytes were released from the ovaries. Stage V and VI oocytes were selected and placed in media containing (mM): NaCl 96, KCl 2, MgCl2 1, CaCl2 1.8, HEPES 5, NaPyruvate 2.5, theophylline 0.5, gentamicin […], pH 7.5 (ND-96) for 16-24 hours before injection. Oocytes were injected with 50 nl of Dv8, Dv9, or Dv5 RNA at a concentration of 0.2 mg/ml. Oocytes were incubated at 18° C. for 1-6 days in ND-96 before recording.
Recordings were made at room temperature in modified ND-96 consisting of (mM): NaCl 96, MgCl2 1, CaCl2 0.1, BaCl2 3.5, HEPES 5, pH 7.5. Oocytes were voltage clamped using a Dagan CA1 two microelectrode amplifier (Dagan Corporation, Minneapolis, Minn.) interfaced to a Macintosh 7100/80 computer. The current passing electrode was filled with 0.7 M KCl, 1.7 M KCitrate, and the voltage recording electrode was filled with 1 M KCl. Throughout the experiment oocytes were superfused with modified ND-96 (control solution) or with ND-96 containing potential channel activators and blockers at a rate of approximately 3 ml/min. Data were acquired at 100 Hz and filtered at 33.3 Hz using Pulse software from HEKA Elektronik (Lambrecht, Germany). All recordings were performed from a holding potential of either 0 or −30 mV.
During a 60s application of GABA approximately 50% of the current desensitized and the remaining current deactivated rapidly upon wash-out of GABA. Repeated applications of 1 mM GABA elicited similar responses. […] Oocytes injected with Dv5 mRNA responded similarly to oocytes injected with Dv8 and Dv9 mRNA (data not shown).

N[C@@H](CCC(=O)O)C(=O)O [glutamate]
current in response to application of compound: did not activate a current

C=C(C)[C@@H]1[C@H]2OC(=O)[C@@H]1[C@]1(O)C[C@H]3O[C@]34C(=O)O[C@H]2[C@]14C [picrotoxinin]
block of the GABA-activated current (10 μM, data not shown): blocked completely

NCCCC(=O)O [GABA, γ-Aminobutric acid]
current in response to application of compound: rapidly activating current
fraction of the current desensitized during application (60s application of 1 mM GABA, oocytes expressing Dv8 and Dv9): approximately 50%

N#Cc1nn(-c2c(Cl)cc(C(F)(F)F)cc2Cl)c(N)c1[S+]([O-])C(F)(F)F (centres unmarked) [fipronil]
block of the GABA-activated current (5 μM, FIG. 5, channel of SEQ. ID. NO. 2 (Dv9)): blocked completely
